# Assay results taken from PubChem BioAssay AID248 (DTP/NCI, 2004).
# Inconclusive results and toxic doses are left out.
# Test system: L1210 leukemia ip in BDF1 mice, survival T/C
# Test: NCI In Vivo Anticancer Drug Screen. Data for tumor model L1210 Leukemia (intraperitoneal) in B6D2F1 (BDF1) mice
# Details: endpoint: mean survival time, schedule: Q01DX001 (ip), vehicle: Klucel (hydroxypropylcellulose) (HPC), higher = longer survival
# In short: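 Antitumor effect is assessed in tumor-bearing animals. Survival in the compound arm is compared with a vehicle-dosed control arm and expressed as their quotient.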
smiles,measurement,setting,value
C=Cc1cnc(NC(C)=O)c(C#N)n1,T/C,dose: 100.0 mg/kg/injection,103 % of control
same,T/C,dose: 200.0 mg/kg/injection,100 % of control
